Source: ChEMBL document CHEMBL5126499, “Small molecule therapeutics for tauopathy in Alzheimer's disease: Walking on the path of most resistance” (Eur J Med Chem, 2021)

Experiments:
[1] = Reduction of tau protein level in human HeLa C3 cells transfected with human 4R0N tau at 30 uM incubated for 24 hrs by Western blot analysis relative to control; type: functional; set-up: scale not given: the % may be the effect or the level left
[2] = Cmax in mouse brain at 10 mg/kg, ip; type: ADME, organism-based; set-up: dose 10 mg/kg, route ip; conditions: in vivo
[3] = Tmax in mouse brain at 10 mg/kg, ip; type: ADME, organism-based
[4] = Induction of SirT2 production in mouse N2a cells transfected with ApoE4 assessed as increase in SirT2 levels by sandwich ELISA; type: functional, cell-based
[5] = Inhibition of human HSP70 ATPase activity at incubated for 3 hrs by malachite green reagent based HTS analysis
Homo sapiens = species on record: Homo sapiens; experiment: Inhibition of human HSP70 ATPase activity at 10 uM incubated for 3 hrs by malachite green reagent based HTS analysis relative to control
Drosophila = experiment: Inhibition of tau protein accumulation in Drosophila larvae eye assessed as reduction in tau protein level at 0.75 mg/ml dripped every other day by immunohistochemistry; type: functional
[6] = Inhibition of HSP70 in human SK-N-BE(2)-M17 cells overexpressing tau protein assessed as reduction in tau protein level measured after 24 hrs by Western blot analysis; type: cell-based; conditions: SK-N-BE(2)-M17, 24 h
[7] = Inhibition of HSP70 in human HeLa C3 cells overexpressing tau protein assessed as reduction in tau protein level measured after 24 hrs by Western blot analysis; type: cell-based; conditions: HeLa C3, 24 h
HeLa C3 = experiment: Inhibition of HSP70 in human HeLa C3 cells overexpressing tau protein assessed as reduction in tau protein level at 0.025 to 9 uM measured after 24 hrs by Western blot analysis relative to control; type: cell-based; conditions: dose 0.025-9 µM
SK-N-BE(2)-M17 = experiment: Inhibition of HSP70 in human SK-N-BE(2)-M17 cells overexpressing tau protein assessed as reduction in tau protein level at 0.025 to 9 uM measured after 24 hrs by Western blot analysis relative to control; type: cell-based; conditions: dose 0.025-9 µM

Q: Which Activity [1] does the source give for `CCn1c(=O)/c(=C2\Sc3cc(C(F)(F)F)ccc3N2C)s/c1=C\c1ccccn1` here?
A: The Activity was 50%.

Q: With `CCNC1=NC(c2ccc(F)cc2)NC(=O)N1` (stereo unspecified) as the compound, how does the Cmax [2] read?
A: The Cmax was 1.5 ng/mg.

Q: What about the Tmax [3] of the same compound?
A: Its Tmax is 30 min.

Q: With `CC(N)C(=O)OC(C)(C)Cc1ccc(Cl)cc1` (stereo unspecified) [ALAPROCLATE] as the compound, how does the EC50 [4] read?
A: The EC50 was 2 µM.

Q: For `CN(C)c1ccc2nc3ccc(N(C)C)cc3[s+]c2c1` [METHYLENE BLUE ANHYDROUS], which IC50 [5] is on record?
A: Its IC50 is 83 µM.

Q: With `O=c1c(O)c(-c2cc(O)c(O)c(O)c2)oc2cc(O)cc(O)c12` [MYRICETIN] as the compound, how does the inhibition (Homo sapiens) read?
A: The inhibition was > 80%.

Q: And the IC50 [5]?
A: Its IC50 is 12 µM.

Q: For `O=C1C(Cl)=C(N[C@@H](Cc2c[nH]c3ccccc23)C(=O)O)C(=O)c2ccccc21`, which inhibition at 750 µg/mL (Drosophila) is on record?
A: The inhibition at 750 µg/mL was 70%.

Q: For `CNc1ccc2nc3ccc(N)cc3[s+]c2c1` [AZURE C], which inhibition (Homo sapiens) is on record?
A: The inhibition was > 80%.

Q: What about the IC50 [5] of the same compound?
A: Its IC50 is 11 µM.

Q: For `CCn1c(=O)/c(=C2\Sc3ccccc3N2C)s/c1=C\c1cccc[n+]1C`, which EC50 [6] is on record?
A: The EC50 was 1.5 µM.

Q: What about the EC50 [7] of the same compound?
A: Its EC50 is 0.9 µM.

Q: What about the inhibition (HeLa C3) of the same compound?
A: Its inhibition is 75%.

Q: And the inhibition (SK-N-BE(2)-M17)?
A: Its inhibition is 75%.

Q: Which EC50 [7] does the source give for `CCn1c(=O)/c(=C2\Sc3ccccc3N2C)s/c1=C\c1cccc[n+]1CC` here?
A: The EC50 was 8 µM.

Q: With `CN(C)c1ccc2nc3ccc(=[N+](C)C)cc-3sc2c1` as the compound, how does the inhibition (Homo sapiens) read?
A: Its inhibition is > 80%.
